# Measurements from PubChem BioAssay (NCI).
#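 Briefly, cells in 96-well plates were exposed to five compound concentrations for 48 h, and endpoints were estimated by linear interpolation. TGI is the concentration that stops growth completely.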
# Legend:
# Assay in all cases: NCI-60 cell line screen, 48 h
# 786-0 renal = test system: 786-0 renal
# SNB-75 CNS = test system: SNB-75 CNS
# CCRF-CEM leukemia = test system: CCRF-CEM leukemia
# SK-MEL-5 melanoma = test system: SK-MEL-5 melanoma
# A498 renal = test system: A498 renal
# NCI-H460 lung = test system: NCI-H460 lung
# IGROV1 ovarian = test system: IGROV1 ovarian
# OVCAR-8 ovarian = test system: OVCAR-8 ovarian
# SF-539 CNS = test system: SF-539 CNS
# SK-MEL-2 melanoma = test system: SK-MEL-2 melanoma
# HOP-92 NSCLC = test system: HOP-92 NSCLC
# OVCAR-3 ovarian = test system: OVCAR-3 ovarian
# SK-MEL-28 melanoma = test system: SK-MEL-28 melanoma
# NCI-H226 lung = test system: NCI-H226 lung
# UACC-257 melanoma = test system: UACC-257 melanoma
# DU-145 prostate = test system: DU-145 prostate
# A549 NSCLC = test system: A549 NSCLC
# TK-10 renal = test system: TK-10 renal
# EKVX NSCLC = test system: EKVX NSCLC
SMILES,TGI (786-0 renal),TGI (SNB-75 CNS),TGI (CCRF-CEM leukemia),TGI (SK-MEL-5 melanoma),TGI (A498 renal),TGI (NCI-H460 lung),TGI (IGROV1 ovarian),TGI (OVCAR-8 ovarian),TGI (SF-539 CNS),TGI (SK-MEL-2 melanoma),TGI (HOP-92 NSCLC),TGI (OVCAR-3 ovarian),TGI (SK-MEL-28 melanoma),TGI (NCI-H226 lung),TGI (UACC-257 melanoma),TGI (DU-145 prostate),TGI (A549 NSCLC),TGI (TK-10 renal),TGI (EKVX NSCLC)
NNC(=Nc1ccccc1)SCc1ccccc1,> 100 µM,> 100 µM,> 100 µM,> 100 µM,> 100 µM,> 100 µM,> 100 µM,> 100 µM,> 100 µM,> 100 µM,> 100 µM,> 100 µM,> 100 µM,> 100 µM,> 100 µM,> 100 µM,> 100 µM,–,–
O=c1c2ncn(C3CCCCO3)c2n(-c2ccccc2)c(=S)n1-c1ccccc1 (stereo not given),> 86.2 µM,20.7 µM,> 100 µM,> 100 µM,89.6 µM,> 100 µM,69.2 µM,> 100 µM,32.4 µM,> 79.7 µM,31 µM,> 81.3 µM,> 100 µM,86.2 µM,> 100 µM,> 100 µM,> 100 µM,83 µM,> 87.9 µM
CC1(C)CC(=O)C2=C(C1)NC(SCC(=O)O)=C(C#N)C2c1ccc(Br)cc1 (stereo not given),> 100 µM,> 100 µM,> 100 µM,> 100 µM,> 100 µM,> 100 µM,> 100 µM,> 100 µM,–,> 100 µM,> 100 µM,> 100 µM,> 100 µM,> 100 µM,> 100 µM,> 100 µM,> 100 µM,> 100 µM,> 100 µM
COc1ccc2c(c1)C1Oc3ccccc3CC1(O)CO2 (stereo not given),> 100 µM,> 100 µM,> 100 µM,> 100 µM,> 100 µM,–,> 100 µM,> 100 µM,> 100 µM,> 100 µM,> 100 µM,> 100 µM,–,> 100 µM,> 100 µM,> 100 µM,> 100 µM,> 100 µM,> 100 µM
O=c1[nH]nc(Cc2ccccc2)n1/N=C/c1ccc([N+](=O)[O-])o1,22.7 µM,15 µM,> 100 µM,–,23.1 µM,> 100 µM,15.7 µM,19.2 µM,8.94 µM,16 µM,30.1 µM,29.8 µM,17.6 µM,29.5 µM,19.7 µM,42.3 µM,> 100 µM,17.6 µM,16.7 µM
O=c1[nH]c(=S)c2cc3c(=S)[nH]c(=O)n(CCC(c4ccccc4)(c4ccccc4)c4ccccc4)c3nc2n1CCC(c1ccccc1)(c1ccccc1)c1ccccc1,> 100 µM,> 100 µM,27.7 µM,> 100 µM,> 100 µM,> 100 µM,–,–,–,> 100 µM,> 100 µM,> 100 µM,> 100 µM,> 100 µM,> 100 µM,> 100 µM,> 100 µM,> 100 µM,> 100 µM
Cc1ccc(C(=O)Cc2nc3ncccc3[nH]c2=O)cc1,45.3 µM,–,> 100 µM,> 100 µM,> 100 µM,> 100 µM,> 100 µM,53.1 µM,74.9 µM,> 100 µM,48.1 µM,> 100 µM,87.4 µM,66.5 µM,> 100 µM,> 100 µM,26.7 µM,57.4 µM,> 100 µM
OCCN1CN(c2nc(N3CN(CCO)C3)nc(N3CN(CCO)C3)n2)C1,60.7 µM,57 µM,50.6 µM,33.4 µM,96.2 µM,36.1 µM,85.6 µM,> 100 µM,35 µM,41.9 µM,53 µM,–,37.3 µM,51.2 µM,36.2 µM,54.7 µM,> 100 µM,78.7 µM,70.1 µM
O=C(O)C(F)(F)C(F)(F)C(F)(F)C(F)(F)C(=O)O,> 100 µM,> 100 µM,> 100 µM,> 100 µM,> 100 µM,> 100 µM,> 100 µM,> 100 µM,–,> 100 µM,> 100 µM,> 100 µM,> 100 µM,> 100 µM,> 100 µM,> 100 µM,> 100 µM,> 100 µM,> 100 µM
COc1ccccc1C1=C2C(=O)N(C)C(c3ccccc3OC)=C2C(=O)N1C,85.5 µM,–,> 100 µM,> 100 µM,> 100 µM,> 100 µM,> 100 µM,> 100 µM,64.2 µM,–,> 100 µM,> 100 µM,> 100 µM,> 100 µM,> 100 µM,> 100 µM,> 100 µM,> 100 µM,> 100 µM
CC(C)(C)OC(=O)NC1CCCC1C(O)(C1=CCCC1)C1=CCCC1 (stereo not given),> 100 µM,> 100 µM,> 100 µM,> 100 µM,> 100 µM,> 100 µM,> 100 µM,> 100 µM,–,> 100 µM,> 100 µM,> 100 µM,> 100 µM,> 100 µM,> 100 µM,> 100 µM,> 100 µM,–,–
Cc1ccc(C2(N3CCCC3)OC(C)(C)c3cccc4cccc2c34)cc1 (stereo not given),37.6 µM,26.3 µM,> 100 µM,28.2 µM,30 µM,26.3 µM,29.8 µM,29.8 µM,32.1 µM,28.2 µM,21.2 µM,30.3 µM,–,31.8 µM,31 µM,32.8 µM,24.6 µM,38.6 µM,24 µM
